Among the data in ChEMBL document CHEMBL1131676, “The discovery of orally available thrombin inhibitors: optimisation of the P1 pharmacophore” (Bioorg Med Chem Lett, 1999) are APTT and Ki values, retold here.

By Ki is commonly meant the dissociation constant of the complex between target and ligand, obtained from inhibition or displacement. Low values mean higher affinity, high ones lower affinity.

The structures appear in SMILES notation.

Assay [1] in a line: Effect on doubling of human clotting time assay expressed as Activated partial thromboplastin time value (APTT). Format: functional.
For assay [2], the target named is Prothrombin (Homo sapiens, UniProt P00734). The assay is described as follows: Binding affinity to human thrombin.

In assay [1], `O=C([C@H](Cc1cscn1)NS(=O)(=O)c1cnccc1N[C@H](CO)Cc1ccccc1)N1CCC(CCF)CC1` gave an APTT of 9.17 µM. In assay [2], this compound gave a Ki of 280 nM.
On to `O=C([C@@H](NS(=O)(=O)c1cnccc1N[C@H](CO)Cc1ccccc1)C1CCCCC1)N1CCC(CCF)CC1`, for which the Ki in assay [2] turned out to be 11800 nM.
For the compound `Nc1cc(C[C@H](NS(=O)(=O)c2cnccc2N[C@H](CO)Cc2ccccc2)C(=O)N2CCC(CCF)CC2)ccc1O`, in assay [1], the APTT stood at 1.53 µM. In assay [2], this compound gave a Ki of 26 nM.
In assay [2], `NCCCC[C@H](NS(=O)(=O)c1cnccc1N[C@H](CO)Cc1ccccc1)C(=O)N1CCC(CCF)CC1` came in with a Ki of 1800 nM.
`O=C([C@@H](NS(=O)(=O)c1cnccc1N[C@H](CO)Cc1ccccc1)c1ccncc1)N1CCC(CCF)CC1`: the affinity in assay [2] corresponds to a Ki of 1540 nM. This Ki and that of the compound before are within 1.5-fold of each other.
Same read-out and setting: then `CC(C)C[C@H](NS(=O)(=O)c1cnccc1N[C@H](CO)Cc1ccccc1)C(=O)N1CCC(CCF)CC1`, with 11900 nM.
`O=C([C@H](Cc1ccc(O)cc1)NS(=O)(=O)c1cnccc1N[C@H](CO)Cc1ccccc1)N1CCC(CCF)CC1` yielded an APTT in assay [1] of 1.91 µM. The same compound gave a Ki in assay [2] of 41 nM.
Taken in the same sequence, the figures for `O=C([C@H](Cc1ccc(O)c(O)c1)NS(=O)(=O)c1cnccc1N[C@H](CO)Cc1ccccc1)N1CCC(CCF)CC1` were 6.17 µM and 82 nM.
Taken in the same sequence, the figures for `CNc1ccc([C@H](NS(=O)(=O)c2cnccc2N[C@H](CO)Cc2ccccc2)C(=O)N2CCC(CCF)CC2)cc1` were 4.08 µM and 12 nM.
Regarding `C[C@H](NS(=O)(=O)c1cnccc1N[C@H](CO)Cc1ccccc1)C(=O)N1CCC(CCF)CC1`, the affinity in assay [2] corresponds to a Ki of 49900 nM.
In assay [1], `CCNc1ccc(C[C@H](NS(=O)(=O)c2cnccc2N[C@H](CO)Cc2ccccc2)C(=O)N2CCC(CCF)CC2)cc1` yielded an APTT of 17.4 µM. The affinity in assay [2] corresponds to a Ki of 575 nM.
`CC(C)[C@H](NS(=O)(=O)c1cnccc1N[C@H](CO)Cc1ccccc1)C(=O)N1CCC(CCF)CC1` showed a Ki in assay [2] of 6510 nM.
Take `O=C([C@H](Cc1ccc2c(c1)OCO2)NS(=O)(=O)c1cnccc1N[C@H](CO)Cc1ccccc1)N1CCC(CCF)CC1`: in assay [1], the APTT amounted to 6.39 µM. Further, the Ki in assay [2] was found to be 43 nM.
`COc1ccc(C[C@H](NS(=O)(=O)c2cnccc2N[C@H](CO)Cc2ccccc2)C(=O)N2CCC(CCF)CC2)cc1`: in assay [1], the APTT was 8.013 µM. In assay [2], the Ki came to 36 nM.
In the same order, the values of `O=C([C@H](Cc1ccccc1)NS(=O)(=O)c1cnccc1N[C@H](CO)Cc1ccccc1)N1CCC(CCF)CC1` are 11 µM and 100 nM.
Taken in the same sequence, the figures for `O=C([C@H](Cc1ccc2ccccc2c1)NS(=O)(=O)c1cnccc1N[C@H](CO)Cc1ccccc1)N1CCC(CCF)CC1` were 26 µM and 69 nM.
Taken in the same sequence, the figures for `O=C([C@H](Cc1cccnc1)NS(=O)(=O)c1cnccc1N[C@H](CO)Cc1ccccc1)N1CCC(CCF)CC1` were 20.33 µM and 1610 nM.
As for `N=C(N)NCC[C@H](NS(=O)(=O)c1cnccc1N[C@H](CO)Cc1ccccc1)C(=O)N1CCC(CCF)CC1`, the APTT in assay [1] was determined as 0.75 µM. This compound gave a Ki in assay [2] of 16 nM.
In assay [1], `O=C([C@H](Cc1ccccn1)NS(=O)(=O)c1cnccc1N[C@H](CO)Cc1ccccc1)N1CCC(CCF)CC1` gave an APTT of 3.87 µM. For the same compound, in assay [2], the Ki is 81 nM.
